Earlier results in patent US20220161013A1, “IMPROVED DELIVERY OF DRUG THERAPY TO THE CNS BY ULTRASOUND-BASED OPENING OF THE BLOOD-BRAIN BARRIER” (NORTHWESTERN UNIVERSITY, priority 2019, published 2022).

Key:
[1] = test system: orthotropic glioma xenograft model; details: with valspodar, nude mice
[2] = local convection-enhanced delivery
p-Glycoprotein = p-Glycoprotein (Homo sapiens, UniProt P08183)
Chain of p-Glycoprotein (P08183 whole entry): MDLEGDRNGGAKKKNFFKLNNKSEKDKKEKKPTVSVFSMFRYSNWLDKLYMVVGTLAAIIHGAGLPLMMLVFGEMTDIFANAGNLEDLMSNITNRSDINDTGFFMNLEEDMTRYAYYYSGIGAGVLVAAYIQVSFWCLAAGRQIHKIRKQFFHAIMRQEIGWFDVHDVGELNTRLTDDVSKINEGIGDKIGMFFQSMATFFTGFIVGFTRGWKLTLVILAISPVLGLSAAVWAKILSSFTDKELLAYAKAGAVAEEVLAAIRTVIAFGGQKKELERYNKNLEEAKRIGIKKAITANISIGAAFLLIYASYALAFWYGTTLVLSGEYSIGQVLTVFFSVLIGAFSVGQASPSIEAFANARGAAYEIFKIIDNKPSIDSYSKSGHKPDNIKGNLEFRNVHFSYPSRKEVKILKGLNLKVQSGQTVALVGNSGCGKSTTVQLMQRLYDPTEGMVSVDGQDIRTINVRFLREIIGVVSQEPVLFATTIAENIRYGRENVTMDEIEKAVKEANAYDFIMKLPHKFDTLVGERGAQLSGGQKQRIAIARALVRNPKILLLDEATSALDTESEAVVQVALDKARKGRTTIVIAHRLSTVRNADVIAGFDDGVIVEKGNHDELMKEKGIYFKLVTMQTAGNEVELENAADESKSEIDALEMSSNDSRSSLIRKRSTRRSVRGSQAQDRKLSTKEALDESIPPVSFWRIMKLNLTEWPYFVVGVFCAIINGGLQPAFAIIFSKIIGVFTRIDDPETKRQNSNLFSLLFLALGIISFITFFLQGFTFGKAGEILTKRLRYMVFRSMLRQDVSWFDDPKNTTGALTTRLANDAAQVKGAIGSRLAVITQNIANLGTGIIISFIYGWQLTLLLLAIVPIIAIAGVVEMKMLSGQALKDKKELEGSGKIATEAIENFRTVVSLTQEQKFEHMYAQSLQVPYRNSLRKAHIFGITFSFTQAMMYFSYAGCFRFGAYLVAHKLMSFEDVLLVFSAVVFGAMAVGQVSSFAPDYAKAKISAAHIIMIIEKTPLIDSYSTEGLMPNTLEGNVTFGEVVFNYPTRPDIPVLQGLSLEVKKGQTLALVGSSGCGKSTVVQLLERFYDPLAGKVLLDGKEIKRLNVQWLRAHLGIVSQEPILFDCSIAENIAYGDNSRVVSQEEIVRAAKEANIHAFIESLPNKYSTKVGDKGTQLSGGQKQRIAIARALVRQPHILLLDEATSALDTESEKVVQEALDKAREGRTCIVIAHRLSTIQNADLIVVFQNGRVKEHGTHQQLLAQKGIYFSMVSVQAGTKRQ

Structure (SMILES): CC(=O)O[C@H]1C(=O)[C@@]2(C)[C@H]([C@H](OC(=O)c3ccccc3)[C@]3(O)C[C@H](OC(=O)[C@H](O)[C@@H](NC(=O)c4ccccc4)c4ccccc4)C(C)=C1C3(C)C)[C@]1(OC(C)=O)CO[C@@H]1C[C@@H]2O [PTX, paclitaxel]
- effectiveness when using p-Glycoprotein blocker valspodar [1]: significant increased effectiveness
- response rate [2]: 73%
- substrate for the multidrug resistance protein p-Glycoprotein (p-Glycoprotein): substrate
